Assay results published in US20230416256A1, “SMALL MOLECULE INHIBITORS OF NF-kB INDUCING KINASE” (Janssen Pharmaceutica NV, priority 2020, published 2023).
pIC50: −log10 of the molar value. Where two headings read alike, the source gives them in different places.

How the values were obtained:
[1] = test system: p-IKKα levels in L363 (NIK translocated multiple myeloma) cells; experiment: Effect of compounds on p-IKKα levels in L363 cells (AlphaLISA SureFire Ultra); type: cell-based, human; settings: Homo sapiens, 10 μM MG132, 6 h, average of values obtained, read-out: Assay 2 IC50
Procedure, shortened: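 L363 cells were BAFF-stimulated overnight (250 ng/ml) in DMEM/0.5% BSA, then exposed to an 11-point 1:3 compound series (0.3% DMSO) with BAFF and 10 μM MG132 for 6 h at 37 °C. p-IKKα (Ser176/180) was measured by AlphaLISA SureFire Ultra. IC50 was fitted from % inhibition normalized to stimulated and unstimulated controls.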

[2] = biological target: recombinant human NF-kappaB-inducing kinase (NIK/MAP3K14) (Homo sapiens, UniProt Q99558); experiment: Inhibition of auto-phosphorylation of recombinant human NIK/MAP3K14 activity (AlphaScreen); type: biochemical; settings: GST-tagged NIK/MAP3K14 1 nM, 5 μM ATP, 2 h at 25° C.; average of values obtained
Sequence of recombinant human NF-kappaB-inducing kinase (NIK/MAP3K14) (Q99558 whole entry): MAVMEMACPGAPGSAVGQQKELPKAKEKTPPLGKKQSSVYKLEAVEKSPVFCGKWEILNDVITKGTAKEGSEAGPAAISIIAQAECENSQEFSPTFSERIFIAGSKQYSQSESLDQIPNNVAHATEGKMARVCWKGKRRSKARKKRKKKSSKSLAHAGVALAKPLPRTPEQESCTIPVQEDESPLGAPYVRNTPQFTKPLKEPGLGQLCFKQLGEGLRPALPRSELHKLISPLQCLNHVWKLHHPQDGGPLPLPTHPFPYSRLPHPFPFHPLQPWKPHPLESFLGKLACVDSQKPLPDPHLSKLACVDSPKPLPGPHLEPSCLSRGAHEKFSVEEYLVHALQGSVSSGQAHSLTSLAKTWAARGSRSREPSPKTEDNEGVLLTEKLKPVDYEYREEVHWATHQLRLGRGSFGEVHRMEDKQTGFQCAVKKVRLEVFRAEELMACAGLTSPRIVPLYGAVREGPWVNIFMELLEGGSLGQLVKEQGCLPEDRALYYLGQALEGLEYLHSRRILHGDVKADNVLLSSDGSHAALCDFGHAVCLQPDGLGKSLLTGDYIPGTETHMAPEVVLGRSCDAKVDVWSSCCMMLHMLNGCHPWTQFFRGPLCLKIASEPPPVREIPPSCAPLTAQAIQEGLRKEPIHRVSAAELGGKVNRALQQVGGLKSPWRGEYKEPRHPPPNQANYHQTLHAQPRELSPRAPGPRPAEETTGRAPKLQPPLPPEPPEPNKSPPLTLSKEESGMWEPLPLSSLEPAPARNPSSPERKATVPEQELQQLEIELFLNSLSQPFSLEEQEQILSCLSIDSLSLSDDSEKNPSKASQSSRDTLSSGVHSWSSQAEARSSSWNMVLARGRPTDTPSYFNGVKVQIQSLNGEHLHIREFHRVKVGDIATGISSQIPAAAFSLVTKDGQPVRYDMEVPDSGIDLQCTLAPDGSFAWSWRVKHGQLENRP
Procedure, shortened: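 GST-tagged NIK (1 nM) auto-phosphorylated for 2 h at 25 °C with 5 μM ATP in 50 mM Tris pH 7.5, 5 mM MgCl2, 0.7% DMSO. Phospho-Ser176/180 was detected by AlphaScreen using an anti-phospho-IKK antibody. IC50 came from sigmoidal fits of % inhibition versus high (full activity) and low (no ATP) controls.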

[3] = L-363, 250 ng/ml BAFF stimulated

| pIC50 ([1]; L-363, 6 h, 250 ng/ml BAFF stimulated) | Compound | pIC50 [1, 3] | pIC50 [2] |
| --- | --- | --- | --- |
| – | CN1CC[C@@](O)(c2cccc(-c3nc(-c4c[nH]c5ncccc45)sc3C#N)c2)C1=O [Example 98, (R)-4-(3-(3-Hydroxy-1-methyl-2-oxopyrrolidin-3-yl)phenyl)-2-(1H-pyrrolo[2,3-b]pyridin-3-yl)thiazole-5-carbonitrile] | < 6.30 | < 6.30 |
| – | CN1CC[C@@](O)(c2cccc(-c3csc(-c4n[nH]c5ncccc45)n3)c2)C1=O [Example 100, (R)-3-(3-(2-(1H-Pyrazolo[3,4-b]pyridin-3-yl)thiazol-4-yl)phenyl)-3-hydroxy-1-methylpyrrolidin-2-one] | < 6.30 | < 6.30 |
| < 6.30 | C[C@@]1(O)C[C@@](O)(c2cccc(-c3csc(-c4c[nH]c5ncccc45)n3)c2)c2ncccc21 [Example 106, (5R,7R)-7-(3-(2-(1H-Pyrrolo[2,3-b]pyridin-3-yl)thiazol-4-yl)phenyl)-5-methyl-6,7-dihydro-5H-cyclopenta[b]pyridine-5,7-diol] | – | < 6.30 |
| – | CN1CC[C@@](O)(c2cccc(-c3csc(-c4c(F)[nH]c5ncc(F)cc45)n3)c2)C1=O [Example 110, (R)-3-(3-(2-(2,5-Difluoro-1H-pyrrolo[2,3-b]pyridin-3-yl)thiazol-4-yl)phenyl)-3-hydroxy-1-methylpyrrolidin-2-one] | < 6.30 | 6.30 to 7.00 |
| – | CN1CC[C@@](O)(c2cccc(-c3csc(-n4ccc5nc(N)ccc54)n3)c2)C1=O [Example 112, (R)-3-(3-(2-(5-Amino-1H-pyrrolo[3,2-b]pyridin-1-yl)thiazol-4-yl)phenyl)-3-hydroxy-1-methylpyrrolidin-2-one] | < 6.30 | < 6.30 |
| – | Cc1ccc2[nH]cc(-c3nc(-c4cccc([C@]5(O)CCN(C)C5=O)c4)cs3)c2n1 [Example 113, (R)-3-Hydroxy-1-methyl-3-(3-(2-(5-methyl-1H-pyrrolo[3,2-b]pyridin-3-yl)thiazol-4-yl)phenyl)pyrrolidin-2-one] | < 6.30 | 6.30 to 7.00 |
| – | CN1CC[C@@](O)(c2cccc(-c3ccc(-c4c[nH]c5ncccc45)o3)c2)C1=O [Example 114, (R)-3-(3-(5-(1H-Pyrrolo[2,3-b]pyridin-3-yl)furan-2-yl)phenyl)-3-hydroxy-1-methylpyrrolidin-2-one] | 6.30 to 7.00 | ≥ 7.00 |
| – | CN1CC[C@@](O)(c2cccc(-c3cc(-c4c[nH]c5ncccc45)co3)c2)C1=O [Example 115, (R)-3-(3-(4-(1H-Pyrrolo[2,3-b]pyridin-3-yl)furan-2-yl)phenyl)-3-hydroxy-1-methylpyrrolidin-2-one] | < 6.30 | < 6.30 |
| – | CN1CC[C@@](O)(c2cccc(-c3coc(-c4c[nH]c5ncccc45)n3)c2)C1=O [Example 116, (R)-3-(3-(2-(1H-Pyrrolo[2,3-b]pyridin-3-yl)oxazol-4-yl)phenyl)-3-hydroxy-1-methylpyrrolidin-2-one] | < 6.30 | ≥ 7.00 |
| – | CN1CC[C@@](O)(c2cccc(-c3cc(-c4c[nH]c5ncccc45)[nH]n3)c2)C1=O [Example 117, (R)-3-(3-(5-(1H-Pyrrolo[2,3-b]pyridin-3-yl)-1H-pyrazol-3-yl)phenyl)-3-hydroxy-1-methylpyrrolidin-2-one] | < 6.30 | 6.30 to 7.00 |
| – | CN1CC[C@@](O)(c2cccc(-c3cc(-c4c[nH]c5ncccc45)nn3C)c2)C1=O [Example 118, (R)-3-Hydroxy-1-methyl-3-(3-(1-methyl-3-(1H-pyrrolo[2,3-b]pyridin-3-yl)-1H-pyrazol-5-yl)phenyl)pyrrolidin-2-one] | < 6.30 | 6.30 to 7.00 |
| – | Cc1c(-c2c[nH]c3ncccc23)n[nH]c1-c1cccc([C@]2(O)CCN(C)C2=O)c1 [Example 119, (R)-3-Hydroxy-1-methyl-3-(3-(4-methyl-3-(1H-pyrrolo[2,3-b]pyridin-3-yl)-1H-pyrazol-5-yl)phenyl)pyrrolidin-2-one] | < 6.30 | < 6.30 |
| – | CN1CC[C@@](O)(c2cccc(-c3cnc(-c4c[nH]c5ncccc45)n3C)c2)C1=O [Example 120, (R)-3-hydroxy-1-methyl-3-(3-(1-methyl-2-(1H-pyrrolo[2,3-b]pyridin-3-yl)-1H-imidazol-5-yl)phenyl)pyrrolidin-2-one] | < 6.30 | < 6.30 |
| – | CN1CC[C@@](O)(c2cccc(-c3ncc(-c4c[nH]c5ncccc45)n3C)c2)C1=O [Example 125, (R)-3-Hydroxy-1-methyl-3-(3-(1-methyl-5-(1H-pyrrolo[2,3-b]pyridin-3-yl)-1H-imidazol-2-yl)phenyl)pyrrolidin-2-one] | < 6.30 | 6.30 to 7.00 |
| – | CN1CC[C@@](O)(c2cccc(-c3nc(-c4ccnc5[nH]ccc45)cs3)c2)C1=O [Example 127, (R)-3-(3-(4-(1H-Pyrrolo[2,3-b]pyridin-4-yl)thiazol-2-yl)phenyl)-3-hydroxy-1-methylpyrrolidin-2-one] | < 6.30 | ≥ 7.00 |
| – | CN1CC[C@@](O)(c2cccc(-c3nc(-c4ccc5cnn(C)c5c4)cs3)c2)C1=O [Example 128, (R)-3-Hydroxy-1-methyl-3-(3-(4-(1-methyl-1H-indazol-6-yl)thiazol-2-yl)phenyl)pyrrolidin-2-one] | < 6.30 | < 6.30 |
| – | CN1CC[C@@](O)(c2cccc(-c3nc(-c4cc(N)nc5[nH]ccc45)cs3)c2)C1=O [Example 129, (R)-3-(3-(4-(6-Amino-1H-pyrrolo[2,3-b]pyridin-4-yl)thiazol-2-yl)phenyl)-3-hydroxy-1-methylpyrrolidin-2-one] | < 6.30 | < 6.30 |
| – | CN1CC[C@@](O)(c2cccc(-c3nc(-c4c(Cl)cnc5[nH]ccc45)cs3)c2)C1=O [Example 130, (R)-3-(3-(4-(5-Chloro-1H-pyrrolo[2,3-b]pyridin-4-yl)thiazol-2-yl)phenyl)-3-hydroxy-1-methylpyrrolidin-2-one] | < 6.30 | < 6.30 |
| – | CN1CC[C@@](O)(c2cccc(-c3nc(-c4cccc5[nH]ncc45)cs3)c2)C1=O [Example 131, (R)-3-(3-(4-(1H-Indazol-4-yl)thiazol-2-yl)phenyl)-3-hydroxy-1-methylpyrrolidin-2-one] | < 6.30 | < 6.30 |
| – | CN1CC[C@@](O)(c2cccc(-c3nc(-c4c(F)cnc5[nH]ccc45)cs3)c2)C1=O [Example 132, (R)-3-(3-(4-(5-Fluoro-1H-pyrrolo[2,3-b]pyridin-4-yl)thiazol-2-yl)phenyl)-3-hydroxy-1-methylpyrrolidin-2-one] | < 6.30 | < 6.30 |
